From patent US20100035858A1, “Novel Compositions and Methods for Binding and Inhibiting 5-HT4 Receptor” (Immune Control, Inc., priority 2008, published 2010)
“Also recorded” adds a separate entry of the source. Where two headings read alike, the source gives them in different places. Each block holds one compound with its values, some of them ahead of it.

Key:
MDR1-MDCK [1] = assay: MDR1-MDCK Permeability (potential to cross the blood-brain barrier); conditions: for Brain Penetration Classification: from A-B Papp and efflux ratio
MDR1-MDCK [2] = system: MDR1-MDCK
[3] = system: rat model of collagen-induced arthritis; assay: Rat model of collagen-induced arthritis, ankle diameter; format: in vivo; conditions: for reduction of ankle diameter: 10 mg/kg ip daily, about 3 days, caliper measurement; for efficacy in reducing ankle diameter compared with Enbrel: rheumatoid arthritis rat model, versus Enbrel
Method: The next set of experiments was designed to test the ability of the compounds of the invention on a rat model of collagen-induced arthritis. Briefly, Female Lewis rats were immunized with bovine type 2 collagen 2 mg/mL in 0.01N HAc mixed 1:1 w/ FIA injected id 0.1 mL at each of three sites on back (Rosloniec, E. F., A. H. Kang, L. K. Myers, M. A. Cremer. 1996. Collagen-induced arthritis. R. Coico, and E. Shevach, eds. Current Protocols in Immunology 15.5.1. Weily & Sons, New York.).
FIG. 2 depicts a schematic of the collagen-induced arthritis protocol. Briefly, a test compound of the invention is delivered ip at 10 mg/kg daily, for about 3 days.
FIG. 4 depicts ICI 1260, 1259, 848, 849, 761, 715, and 847 with respect to Enbrel. Additional testing for the effectiveness of compounds ICI 1260, 1259, 848, 849, 761, 715, and 847 at various concentrations (10 mg/kg, 2 mg/kg, 0.4 mg/kg) were conducted, as illustrated in FIGS. 5A-5G. A dose response curve was constructed to illustrate the efficacy of the seven compounds (FIG. 6).

[4] = biological target: histamine type 1 receptor (Homo sapiens, UniProt P35367); assay: Binding to non-5-HT receptors: histamine type 1 receptor; conditions: FIG. 12
histamine type 1 receptor, sequence (P35367 whole entry): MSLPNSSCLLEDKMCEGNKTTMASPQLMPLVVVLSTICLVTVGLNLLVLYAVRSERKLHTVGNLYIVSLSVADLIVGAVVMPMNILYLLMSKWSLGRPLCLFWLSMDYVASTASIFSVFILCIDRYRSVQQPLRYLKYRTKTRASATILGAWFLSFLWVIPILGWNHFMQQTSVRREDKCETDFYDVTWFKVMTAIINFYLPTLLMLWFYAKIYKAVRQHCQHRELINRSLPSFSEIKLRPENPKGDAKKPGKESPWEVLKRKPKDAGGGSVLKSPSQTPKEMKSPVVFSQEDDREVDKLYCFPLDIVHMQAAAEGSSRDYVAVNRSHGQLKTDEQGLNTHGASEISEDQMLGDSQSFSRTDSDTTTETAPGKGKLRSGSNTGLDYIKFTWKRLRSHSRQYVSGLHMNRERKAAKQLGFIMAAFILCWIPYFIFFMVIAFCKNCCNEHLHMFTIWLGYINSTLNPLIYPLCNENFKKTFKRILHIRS
Method: (§1) The methods employed in this study have been adapted from the scientific literature to maximize reliability and reproducibility. Where presented, IC50 values were determined by a non-linear, least squares regression analysis using the DATA ANALYSIS TOOLBOX (MDL Information Systems, San Leandro, Calif., USA). Where inhibition constants (Ki) are presented, the Ki values were calculated using the equation of Cheng and Prusoff (Cheng, Y., Prusoff, W. H., Biochem. Pharmacol. 22:3099-3108, 1973) or equivalent using the observed IC50 of the tested compound, the concentration of ligand employed in the assay, and historical values for the KD of the ligand.
The next set of experiments was designed to assess the selective binding of the test compounds to non-5-HT receptors. The compounds tested are as follows: ICI-735, 848, 849, 1259, and 1260. […] It was also observed that the compounds that bound well to 5-HT4 receptor also bound well to histamine type 1 receptor.

[5] = system: B-cell neoplastic cell line RPMI 8226; assay: Inhibition of proliferation of RPMI cells; format: cell-based; conditions: RPMI cell viability, FIG. 1
Excerpt: The next set of experiments was designed to assess compounds that have low levels of brain penetration for the ability of the test compounds to inhibit cellular proliferation. An exemplary in vitro assay is to screen for the ability of the test compounds to inhibit proliferation of the B-cell neoplastic cell line RPMI 8226 (a plasmacytoma derived from a multiple myeloma patient (Matsuoka, et al., 1967, Proc. Soc. Exp. Biol. Med. 125: 1246-1250). However other cell line can be used such as, U266 (established from an IgE-secreting myeloma patient (Nilsson, et al., 1970, Clin. Exp. Immunol., 7: 477-489) and ARH77 (an EBV transformed plasma cell leukemia (Burk, et al., 1978, Cancer Res. 38: 2508-2513).
FIG. 1 is a graph depicting the effects on the test compounds on RPMI cell viability.

Female Lewis rats = assay: Toxicity in Female Lewis rats; format: in vivo; conditions: 100 mg/kg ip, in comparison with PBS control
Method: The next set of experiments was designed to determine the toxicity of the compounds. Each compound was administered to Female Lewis rats at a dose of 100 mg/kg via ip administration.

5-HT4 receptor = 5-HT4 receptor (Homo sapiens, UniProt Q13639); assay: 5-HT4 receptor binding; conditions: versus fluphenazine (ICI-1175), FIG. 8
5-HT4 receptor, sequence (Q13639 whole entry): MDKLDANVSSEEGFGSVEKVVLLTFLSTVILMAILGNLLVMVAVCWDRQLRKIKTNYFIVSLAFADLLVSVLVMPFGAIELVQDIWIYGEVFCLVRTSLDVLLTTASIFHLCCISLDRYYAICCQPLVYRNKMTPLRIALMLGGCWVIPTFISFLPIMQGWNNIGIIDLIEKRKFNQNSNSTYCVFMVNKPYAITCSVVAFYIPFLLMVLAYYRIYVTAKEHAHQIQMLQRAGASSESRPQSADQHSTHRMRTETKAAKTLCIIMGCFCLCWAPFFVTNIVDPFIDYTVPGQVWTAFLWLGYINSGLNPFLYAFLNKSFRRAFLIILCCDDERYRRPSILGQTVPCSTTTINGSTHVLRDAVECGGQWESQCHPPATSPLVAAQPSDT
Method: as §1
(§2) The experiments include contacting a serotonin type 1B, 2A, 2B, 2C, 3, 4, 6, and 7 receptor with a test compound and comparing the level of binding of serotonin or a control ligand with that serotonin type 1B, 2A, 2B, 2C, 3, 4, 6, and 7 receptor with the level of serotonin binding or control ligand binding with an otherwise identical serotonin type 1B, 2A, 2B, 2C, 3, 4, 6, and 7 receptor not contacted with the test compound. […] The skilled artisan would also appreciate, in view of the disclosure provided herein, that standard binding assays known in the art, or those to be developed in the future, can be used to assess the binding of serotonin or a control ligand with a serotonin type 1B. 2A, 2B, 2C, 3, 4, 6, and 7 receptor in the presence or absence of the test compound to identify a useful compound.
(§3) The next set of experiments was designed to assess the selective binding of the test compounds to 5-HT receptors. ICI-848, ICI-1259, and ICI-1260 were tested against fluphenazine (ICI-1175) to determine selective binding to 5-HT receptors.
The next set of experiments was designed to assess the Ki values of the tested compounds.

5-HT2A receptor = 5-HT2A receptor (Homo sapiens, UniProt P28223); assay: 5-HT2A receptor binding; conditions: versus fluphenazine (ICI-1175), FIG. 8
5-HT2A receptor, sequence (P28223 whole entry): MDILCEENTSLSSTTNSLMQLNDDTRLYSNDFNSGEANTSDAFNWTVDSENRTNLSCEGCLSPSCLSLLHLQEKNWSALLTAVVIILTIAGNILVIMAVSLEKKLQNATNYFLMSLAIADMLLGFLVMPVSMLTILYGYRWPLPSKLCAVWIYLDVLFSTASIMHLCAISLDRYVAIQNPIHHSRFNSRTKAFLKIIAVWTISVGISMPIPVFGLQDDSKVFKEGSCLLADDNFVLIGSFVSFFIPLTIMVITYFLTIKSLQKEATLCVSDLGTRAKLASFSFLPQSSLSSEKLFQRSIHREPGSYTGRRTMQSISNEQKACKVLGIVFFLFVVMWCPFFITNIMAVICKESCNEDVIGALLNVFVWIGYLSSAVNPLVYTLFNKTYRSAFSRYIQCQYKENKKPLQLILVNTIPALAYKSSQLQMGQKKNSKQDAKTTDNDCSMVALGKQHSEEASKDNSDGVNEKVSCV
Method: as §1, §2, §3

5-HT1A receptor = biological target: T1, 5-HT1A receptor (Homo sapiens, UniProt P08908); assay: 5-HT1A receptor binding; conditions: versus fluphenazine (ICI-1175), FIG. 8
T1 sequence (P08908 1-422): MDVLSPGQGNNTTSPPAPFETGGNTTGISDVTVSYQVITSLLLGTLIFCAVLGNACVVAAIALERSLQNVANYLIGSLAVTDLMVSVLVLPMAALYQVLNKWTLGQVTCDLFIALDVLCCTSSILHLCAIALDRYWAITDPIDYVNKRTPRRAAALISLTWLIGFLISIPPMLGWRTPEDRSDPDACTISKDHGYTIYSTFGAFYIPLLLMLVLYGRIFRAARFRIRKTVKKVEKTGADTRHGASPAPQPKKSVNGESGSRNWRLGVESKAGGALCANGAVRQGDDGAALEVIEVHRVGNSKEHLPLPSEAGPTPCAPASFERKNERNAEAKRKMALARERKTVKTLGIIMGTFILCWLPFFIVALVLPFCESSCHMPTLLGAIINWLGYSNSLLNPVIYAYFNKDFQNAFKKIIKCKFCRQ
Method: as §1, §3

Structure (SMILES): NCCCN1CCN(CCCN2c3ccccc3Sc3ccc(C(F)(F)F)cc32)CC1 [ICI-00760]
Brain Penetration Classification (MDR1-MDCK [1]): Low (3) A-B Papp > 3.0 and Efflux Ratio > 10: Low)

Structure (SMILES): OCCN1CCN(CCCN2c3ccccc3Sc3ccc(C(F)(F)F)cc32)CC1 [ICI-01175, fluphenazine, reference compound]
Brain Penetration Classification (MDR1-MDCK [1]): High (1) A-B Papp > 3.0 and Efflux Ratio < 3.0: High)

% Recovery A-B (MDR1-MDCK [2]): 47% | % Recovery B-A (MDR1-MDCK [2]): 33% | Papp A-B (MDR1-MDCK [2]): 0.23 ×10⁻⁶ cm/s | Papp B-A (MDR1-MDCK [2]): 28.6 ×10⁻⁶ cm/s | Efflux (MDR1-MDCK [2]; dog): 124 | binding to histamine type 1 receptor [4]: able to bind histamine type 1 receptor
Structure (SMILES): NCC(=O)NCCN1CCN(CCCN2c3ccccc3Sc3ccc(C(F)(F)F)cc32)CC1 [ICI-00735]
reduction of ankle diameter [3]: did not have a desirable reduction of ankle diameter

Structure (SMILES): NCC(N)C(=O)NCCN1CCN(CCCN2c3ccccc3Sc3ccc(C(F)(F)F)cc32)CC1 (stereo not shown) [ICI-761]
reduction of ankle diameter [3]: decrease the ankle diameter to a desirable level | efficacy in reducing ankle diameter compared with Enbrel [3]: more effective in reducing the ankle diameter than Enbrel | ability to inhibit proliferation of RPMI cells [5]: able to inhibit the proliferation of RPMI cells

Structure (SMILES): CNCC(=O)NCCCN1CCC(CCCN2c3ccccc3Sc3ccc(C(F)(F)F)cc32)CC1 [ICI-01259]
toxicity (Female Lewis rats): not toxic | binding to 5-HT4 receptor compared to fluphenazine (5-HT4 receptor): increased binding | reduction of ankle diameter ([3]; listed as ICI-1259): decrease the ankle diameter to a desirable level; also recorded: most desirable reduction of ankle diameter | efficacy in reducing ankle diameter compared with Enbrel [3]: more effective in reducing the ankle diameter than Enbrel | binding to 5-HT2A receptor compared to fluphenazine (5-HT2A receptor): decreased binding | binding to 5-HT1A receptor compared to fluphenazine (5-HT1A receptor): decreased binding | binding to histamine type 1 receptor [4]: able to bind histamine type 1 receptor | ability to inhibit proliferation of RPMI cells [5]: able to inhibit the proliferation of RPMI cells

Structure (SMILES): FC(F)(F)c1ccc2c(c1)N(CCCN1CCNCC1)c1ccccc1S2 [ICI-00685]
Brain Penetration Classification (MDR1-MDCK [1]): Low (3) A-B Papp > 3.0 and Efflux Ratio > 10: Low)

Structure (SMILES): CNCC(=O)NCCCN1CCN(CCCN2c3ccccc3Sc3ccc(C(F)(F)F)cc32)CC1 [ICI-00823]
toxicity (Female Lewis rats): not toxic | reduction of ankle diameter [3]: decrease the ankle diameter to a desirable level

binding to histamine type 1 receptor [4]: able to bind histamine type 1 receptor
Structure (SMILES): CNCC(=O)NCCN1CCC(CCCN2c3ccccc3Sc3ccc(C(F)(F)F)cc32)CC1 [ICI-00849]
reduction of ankle diameter ([3]; listed as ICI-849): decrease the ankle diameter to a desirable level; also recorded: most desirable reduction of ankle diameter | efficacy in reducing ankle diameter compared with Enbrel [3]: more effective in reducing the ankle diameter than Enbrel | Brain Penetration Classification (MDR1-MDCK [1]): Low (3) A-B Papp > 3.0 and Efflux Ratio > 10: Low) | ability to inhibit proliferation of RPMI cells [5]: able to inhibit the proliferation of RPMI cells

Structure (SMILES): CC(=O)NCCN1CCC(CCCN2c3ccccc3Sc3ccc(C(F)(F)F)cc32)CC1 [ICI-00850]
Brain Penetration Classification (MDR1-MDCK [1]): Low (3) A-B Papp > 3.0 and Efflux Ratio > 10: Low)

Structure (SMILES): N#Cc1ccc2c(c1)N(CCCN1CCN(CCN)CC1)c1ccccc1S2 [ICI-00894]
Brain Penetration Classification (MDR1-MDCK [1]): Low (3) A-B Papp > 3.0 and Efflux Ratio > 10: Low)

Structure (SMILES): CNCC(=O)NCCN1CCN(CCCN2c3ccccc3Sc3ccc(C(F)(F)F)cc32)CC1 [ICI-00758]
toxicity (Female Lewis rats): not toxic | Brain Penetration Classification (MDR1-MDCK [1]): Low (3) A-B Papp > 3.0 and Efflux Ratio > 10: Low)

Structure (SMILES): FC(F)(F)c1ccc2c(c1)N(CCCC1CCNCC1)c1ccccc1S2 [ICI-00824]
toxicity (Female Lewis rats): not toxic

Structure (SMILES): NCCN1CCC(CCCN2c3ccccc3Sc3ccc(C(F)(F)F)cc32)CC1 [ICI-00846]
Brain Penetration Classification (MDR1-MDCK [1]): Low (3) A-B Papp > 3.0 and Efflux Ratio > 10: Low)

Structure (SMILES): NCC(=O)NCCCN1CCN(CCCN2c3ccccc3Sc3ccc(C(F)(F)F)cc32)CC1 [ICI-00822]
Brain Penetration Classification (MDR1-MDCK [1]): Low (3) A-B Papp > 3.0 and Efflux Ratio > 10: Low)

Structure (SMILES): OCCN1CCN(CCCN2c3ccccc3Sc3ccc(C(F)(F)F)cc32)CC1 [ICI-01176]
% Recovery A-B (MDR1-MDCK [1]; MDR1-MDCK, A-B direction): 35% | Papp A-B (MDR1-MDCK [1]; MDR1-MDCK, A-B direction): 0.78 ×10⁻⁶ cm/s | % Recovery B-A (MDR1-MDCK [1]; MDR1-MDCK, B-A direction): 55% | Papp B-A (MDR1-MDCK [1]; MDR1-MDCK, B-A direction): 34.2 ×10⁻⁶ cm/s | Efflux (MDR1-MDCK [1]; MDR1-MDCK, efflux ratio): 44 | Brain Penetration Classification (MDR1-MDCK [1]): Low (3) A-B Papp > 3.0 and Efflux Ratio > 10: Low)

Structure (SMILES): NCCCN1CCC(CCCN2c3ccccc3Sc3ccc(C(F)(F)F)cc32)CC1 [ICI-00847]
reduction of ankle diameter ([3]; listed as ICI-847): decrease the ankle diameter to a desirable level; also recorded: most desirable reduction of ankle diameter | efficacy in reducing ankle diameter compared with Enbrel [3]: more effective in reducing the ankle diameter than Enbrel | Brain Penetration Classification (MDR1-MDCK [1]): Low (3) A-B Papp > 3.0 and Efflux Ratio > 10: Low) | ability to inhibit proliferation of RPMI cells ([5]; listed as ICI-847): able to inhibit the proliferation of RPMI cells

Structure (SMILES): CN(C)CCCN1CCC(CCCN2c3ccccc3Sc3ccc(C(F)(F)F)cc32)CC1 [ICI-01505]
Brain Penetration Classification (MDR1-MDCK [1]): Low (3) A-B Papp > 3.0 and Efflux Ratio > 10: Low)

Structure (SMILES): CN(C)CCN1CCN(CCCN2c3ccccc3Sc3ccc(C(F)(F)F)cc32)CC1 [ICI-00738]
toxicity (Female Lewis rats): not toxic

Structure (SMILES): FC(F)(F)c1ccc2c(c1)N(CCCCN1CCNCC1)c1ccccc1S2 [ICI-00890]
Brain Penetration Classification (MDR1-MDCK [1]): Low (3) A-B Papp > 3.0 and Efflux Ratio > 10: Low)

Structure (SMILES): CN(C)S(=O)(=O)c1ccc2c(c1)N(CCCN1CCN(CCN)CC1)c1ccccc1S2 [ICI-00715]
toxicity (Female Lewis rats): not toxic | reduction of ankle diameter [3]: decrease the ankle diameter to a desirable level | efficacy in reducing ankle diameter compared with Enbrel [3]: more effective in reducing the ankle diameter than Enbrel | ability to inhibit proliferation of RPMI cells [5]: able to inhibit the proliferation of RPMI cells
